Our source for the EC50 values is ChEMBL document CHEMBL1150933, “Cytotoxic sterols from the soft coral Nephthea erecta” (1998).

Converted amounts (≈) assume the structure as drawn.

In the first assay the test system is A549. Nature of the assay: Cytotoxicity against human A549 cells after 6 days by MTT assay. It is filed as functional. The following applies: A549, 144 h, read-out: ED50 (the source's name). (In general: Formazan colour is commonly taken as a measure of viable cells.)
Regarding `C=C(CC[C@@H](C)[C@H]1CC[C@H]2[C@@H]3C(=O)C=C4C[C@@H](O)CC[C@]4(CO)[C@H]3CC[C@]12C)C(C)C`, the EC50 amounted to 4.09 µg/mL (≈ 9.54 µM).

`C=C(CC[C@@H](C)[C@H]1CC[C@H]2[C@@H]3C[C@@H](O)[C@@]4(O)C[C@@H](O)CC[C@]4(CO)[C@H]3CC[C@]12C)C(C)C`: the EC50 turned out to be 0.81 µg/mL (≈ 1.81 µM).

For `C=C(CC[C@@H](C)[C@H]1CC[C@H]2[C@@H]3CC=C4C[C@@H](O)CC[C@]4(CO)[C@H]3CC[C@]12C)C(C)C`, the EC50 turned out to be 1.76 µg/mL (≈ 4.24 µM).

In the case of `C=C(CC[C@@H](C)[C@H]1C[C@@H](O)[C@H]2[C@@H]3CC=C4C[C@@H](O)CC[C@]4(CO)[C@H]3CC[C@@]21C)C(C)C`, the EC50 came out at 0.41 µg/mL (≈ 0.952 µM).

As for `C=C(CC[C@@H](C)[C@H]1CC[C@H]2[C@@H]3[C@@H](OC(C)=O)C=C4C[C@@H](O)CC[C@]4(CO)[C@H]3CC[C@]12C)C(C)C`, the EC50 worked out at 0.81 µg/mL (≈ 1.71 µM).

In the case of `C=C(CC[C@@H](C)[C@H]1CC[C@H]2[C@@H]3[C@@H](O)C=C4C[C@@H](O)CC[C@]4(CO)[C@H]3CC[C@]12C)C(C)C`, the EC50 amounted to 0.69 µg/mL (≈ 1.6 µM).

In another assay the test system is HT-29. Nature of the assay: Cytotoxicity against human HT-29 cells after 6 days by MTT assay. It is filed as functional. The following applies: HT-29, 144 h, read-out: ED50 (the source's name).
`C=C(CC[C@@H](C)[C@H]1CC[C@H]2[C@@H]3C(=O)C=C4C[C@@H](O)CC[C@]4(CO)[C@H]3CC[C@]12C)C(C)C`: the EC50 was found to be 3.34 µg/mL (≈ 7.79 µM).

`C=C(CC[C@@H](C)[C@H]1CC[C@H]2[C@@H]3C[C@@H](O)[C@@]4(O)C[C@@H](O)CC[C@]4(CO)[C@H]3CC[C@]12C)C(C)C`: the EC50 is 0.93 µg/mL (≈ 2.07 µM).

In the case of `C=C(CC[C@@H](C)[C@H]1CC[C@H]2[C@@H]3CC=C4C[C@@H](O)CC[C@]4(CO)[C@H]3CC[C@]12C)C(C)C`, the EC50 is 1.31 µg/mL (≈ 3.16 µM).

As for `C=C(CC[C@@H](C)[C@H]1C[C@@H](O)[C@H]2[C@@H]3CC=C4C[C@@H](O)CC[C@]4(CO)[C@H]3CC[C@@]21C)C(C)C`, the EC50 was 0.17 µg/mL (≈ 0.395 µM).

Regarding `C=C(CC[C@@H](C)[C@H]1CC[C@H]2[C@@H]3[C@@H](OC(C)=O)C=C4C[C@@H](O)CC[C@]4(CO)[C@H]3CC[C@]12C)C(C)C`, the EC50 worked out at 0.87 µg/mL (≈ 1.84 µM).

With `C=C(CC[C@@H](C)[C@H]1CC[C@H]2[C@@H]3[C@@H](O)C=C4C[C@@H](O)CC[C@]4(CO)[C@H]3CC[C@]12C)C(C)C`, the EC50 was found to be 0.72 µg/mL (≈ 1.67 µM).

A further assay deals with KB. Nature of the assay: Cytotoxicity against human KB cells after 3 days by MTT assay. The following applies: 72 h, read-out: ED50 (the source's name). It is filed as functional.
Turning to `C=C(CC[C@@H](C)[C@H]1CC[C@H]2[C@@H]3C(=O)C=C4C[C@@H](O)CC[C@]4(CO)[C@H]3CC[C@]12C)C(C)C`, the EC50 was over 50 µg/mL.

As to `C=C(CC[C@@H](C)[C@H]1CC[C@H]2[C@@H]3C[C@@H](O)[C@@]4(O)C[C@@H](O)CC[C@]4(CO)[C@H]3CC[C@]12C)C(C)C`, the EC50 stood at 0.39 µg/mL (≈ 0.869 µM).

Turning to `C=C(CC[C@@H](C)[C@H]1CC[C@H]2[C@@H]3CC=C4C[C@@H](O)CC[C@]4(CO)[C@H]3CC[C@]12C)C(C)C`, the EC50 is 1.1 µg/mL (≈ 2.65 µM).

As to `C=C(CC[C@@H](C)[C@H]1C[C@@H](O)[C@H]2[C@@H]3CC=C4C[C@@H](O)CC[C@]4(CO)[C@H]3CC[C@@]21C)C(C)C`, the EC50 is 0.6 µg/mL (≈ 1.39 µM).

Turning to `C=C(CC[C@@H](C)[C@H]1CC[C@H]2[C@@H]3[C@@H](OC(C)=O)C=C4C[C@@H](O)CC[C@]4(CO)[C@H]3CC[C@]12C)C(C)C`, the EC50 worked out at 0.38 µg/mL (≈ 0.804 µM).

`C=C(CC[C@@H](C)[C@H]1CC[C@H]2[C@@H]3[C@@H](O)C=C4C[C@@H](O)CC[C@]4(CO)[C@H]3CC[C@]12C)C(C)C`: the EC50 turned out to be 0.58 µg/mL (≈ 1.35 µM).

Another assay relates to P388. The assay can be described thus: Cytotoxicity against mouse P388 cells after 3 days by MTT assay. It is filed as functional. The note with it: P388, 72 h, read-out: ED50 (the source's name).
Regarding `C=C(CC[C@@H](C)[C@H]1CC[C@H]2[C@@H]3C(=O)C=C4C[C@@H](O)CC[C@]4(CO)[C@H]3CC[C@]12C)C(C)C`, the EC50 is 0.4 µg/mL (≈ 0.933 µM).

`C=C(CC[C@@H](C)[C@H]1CC[C@H]2[C@@H]3C[C@@H](O)[C@@]4(O)C[C@@H](O)CC[C@]4(CO)[C@H]3CC[C@]12C)C(C)C`: the EC50 turned out to be 0.34 µg/mL (≈ 0.758 µM).

Turning to `C=C(CC[C@@H](C)[C@H]1CC[C@H]2[C@@H]3CC=C4C[C@@H](O)CC[C@]4(CO)[C@H]3CC[C@]12C)C(C)C`, the EC50 is 0.45 µg/mL (≈ 1.09 µM).

With `C=C(CC[C@@H](C)[C@H]1C[C@@H](O)[C@H]2[C@@H]3CC=C4C[C@@H](O)CC[C@]4(CO)[C@H]3CC[C@@]21C)C(C)C`, the EC50 stood at 0.07 µg/mL (≈ 0.163 µM).

As to `C=C(CC[C@@H](C)[C@H]1CC[C@H]2[C@@H]3[C@@H](OC(C)=O)C=C4C[C@@H](O)CC[C@]4(CO)[C@H]3CC[C@]12C)C(C)C`, the EC50 is 0.42 µg/mL (≈ 0.888 µM).

Turning to `C=C(CC[C@@H](C)[C@H]1CC[C@H]2[C@@H]3[C@@H](O)C=C4C[C@@H](O)CC[C@]4(CO)[C@H]3CC[C@]12C)C(C)C`, the EC50 came to 0.24 µg/mL (≈ 0.557 µM).
